From patent US7871978B2, “Bone tropic peptides” (University of Virginia Patent Foundation, priority 2004, dated 2011)

Key:
[1] = system: bovine aortic endothelial cells; test: Effect of peptides on adherent bovine aortic endothelial cells on fibronectin or collagen; format: cell-based; conditions: for Effect on adherent BAEC (Experiment 1): 0.1M biotinylated peptide, 1 hour, cells adhered four hours on fibronectin or collagen
Method: Peptides from the phage display project were added to bovine aortic endothelial cells in culture. The endothelial cells had adhered to a surface coated with collagen or with fibronectin.
Experiment 1: Bovine aortic endothelial cells were plated on glass slides that were coated either fibronectin or collagen. The cell density was 5,000 cells/well. After the cells adhered for four hours, 0.1M of biotinylated peptide was added to each well. The following peptides were used: L1, L2, L5, L6, L7, L12, L13, L14, L19, R1, R3, and R8.
To perform this experiment, the media was removed and the cells were rinsed with 1×PBS plus 1% BSA three times. Peptides were diluted in 1×PBS plus 1% BSA, added to cells and incubated for 1 hour. The cells were rinsed three times with 1% BSA in PBS, and fixed with 2% parafomaldehyde. Aldehyde groups were blocked with 0.2 M HCl-glycine in PBS, the cells were rinsed three times with 1% BSA in PBS and ExtrAvidin-FITC (1:200 dilution) was added and incubated overnight at 4° C. The cells were rinsed three times with 1% BSA in PBS. The chambers and the gasket were removed from each slide, Vectashield was added, covered and viewed on a Nikon microscope. Images were acquired using a Coolsnap digital camera and Metavue software. […]
Experiment 3: The cells were adherent for about 6 hours and peptides at various concentrations were added to the cells. The concentrations of each of the peptides used in this experiment were: 0.1M, 0.01M, 0.001M and 0.0001M biotinylated peptide. The following peptides were tested: L1, L5, L6, L7, L13, L14, R1, R3, R8, DIP1 and PBS control (SEQ ID NOs:1, 3, 4, 5, 8, 9, 11, 13, 14, and 29).

bone and bone marrow = test: In vivo biopanning with 12-mer peptide phage display library; parameters: species or system BALB/c mice; conditions: for PERCENT FREQUENCY: phage eluted from bone and bone marrow; for PHAGE SEQUENCE FREQUENCY (number of times the sequence was found in a group of plaques): phage eluted from bone and bone marrow after repeated rounds
From the text: The Ph.D.-12 Phage Display Peptide Library Kit (New England Biolabs, Beverly, Mass.) used in this study is based on a combinatorial library of random peptide 12-mers fused to a minor coat protein (pIII). […] The peptide is followed by a short spacer of four amino acid residues, the first three residues of which are glycine and the fourth of which is serine, and then the wild-type III sequence. The library consists of approximately 2.7×10^9 electroporated sequences, amplified once to yield approximately 55 copies of each sequence.
For in vivo biopanning, BALB/c mice 8 weeks of age were injected 3.4×10^10 pfu of phage into the heart. The animals were euthanized after 5 minutes, and the tissues (bone, bone marrow, kidney, liver, and spleen) were collected for analysis. The bound phage was eluted according the manufacturer's instructions. The eluted phage was titered, amplified, purified, and injected again at the same concentration.
The frequency of each peptide in bone and bone marrow was compared with its location in other tissues such as liver, kidney, lung, spleen, and brain. Thirteen unique peptide sequences eluted from bone and marrow were identified were identified by sequencing phage DNA. The peptides were synthesized using the polystyrene solid support on a Protein Technologies Symphony Multiple Channel Synthesizer.

[2] = system: bovine aortic endothelial cells (BAEC); test: Peptide binding to BAEC in culture (Avidin-FITC); parameters: key: ✓: Check marks indicate positive binding observed with FITC; −: a dash indicates a negative result
Method: (§1) For localization of peptide binding to cells and tissue sections, biotinylated peptides were synthesized. Fluorescein-isothiocyanate (FITC) labeled Avidin was used to localize the peptides on cells in culture and in tissue sections in vitro by epiluminescence microscopy. In addition, the biotinylated peptides were detected at concentrations as low as 1 μM in slot blots.
(§2) Bone marrow cells isolated from mouse femur were lifted with ethylenediaminetetraacetic acid (EDTA) and trypsin, resuspended, and allowed to attach on fibronectin-coated chamber slides for Avidin-FITC staining. […] The D1 cell is a multipotential mesenchymal stem-like line that was isolated from bone marrow and shown to have the characteristics of osteoprogenitor cells. This cell line has been well established and used successfully in several in vitro and in vivo studies in our laboratory. Peptide binding to human bone marrow endothelial cells (HBME) and bovine aortic endothelial cells (BAEC) in culture was also tested using the same procedure.

[3] = system: Bone marrow cells isolated from mouse femur; test: Peptide binding to bone marrow cells in culture (Avidin-FITC); parameters: key to Localization of peptide binding: Marrow (cells in culture): ✓: Check marks indicate positive binding observed with FITC; −: a dash indicates a negative result; conditions: FITC
Method: as §1, §2

[4] = system: Membrane and cytosol fractions from human bone marrow endothelial cells; test: Affinity chromatography of HBME fractions on immobilized peptide; format: binding; parameters: key to Identification of binding partners by affinity chromatography: HBME: ✓: Check marks indicate positive binding observed with FITC; −: a dash indicates a negative result; conditions: cell lysates
Method: (§3) Membrane and cytosol fractions from human bone marrow endothelial cells and bovine aortic endothelial cells were prepared and used to identify the components from within these fractions that bind to the peptides using affinity chromatography). […] Cell surface nucleolin is present at higher concentrations in actively dividing cells and is down regulated in cells when they become quiescent. Nucleolin is the apparent cell surface receptor of E-coli intimin-gamma. Cell bound intimin has been proposed to trigger a host cell response similar to the extension of filipodia when cells bind to laminin. […] Table 3 provides a summary of peptide-binding partners (putative receptors) identified by affinity chromatography of cell lysates.
Peptide Affinity Column Chromatography: Peptides identified from the phage display experiments in mouse bone and bone marrow were synthesized with an additional three-residue glycine linker and an N-terminal lysine residue. The lysine residue was used to specifically link the peptides to a support. Cell membranes from BMECs were solubilized with triton X-100. The solubilized proteins were passed through the peptide affinity column (total volume, 500 μL) followed by extensive washes with buffer. Retained proteins were eluted either with 100 mM solution of the same peptide as that immobilized on the column or with a wash of 0.1 N HCl-Glycine, pH 2.2. The eluates were analyzed by SDS PAGE and proteins observed in the gels were identified by LC/MS/MS.

[5] = system: Membrane and cytosol fractions from bovine aortic endothelial cells; test: Affinity chromatography of BAEC fractions on immobilized peptide; format: binding
Method: as §3

[6] = system: Unicortical femoral defects; test: Peptide-mediated osteogenesis in cortical bone defects (Example 8); format: in vivo, Fisher 344 rats; conditions: 100 mM peptide in gelfoam, two weeks postoperatively; for Effectiveness at stimulating osteogenesis and cortical bone repair: versus gelfoam+PBS
Method: In an in vivo study, all 13 peptides at a concentration of 100 mM were tested for their ability to potentiate osteogenesis. A gelfoam cylinder 1.5 mm in diameter 2 mm in length was used as carrier for the peptides. Unicortical femoral defects 1.5 mm in diameter were created bilaterally in Fisher 344 rats; the left femoral defect was filled with gelfoam+PBS (Control), and the right femur with gelfoam+peptide. The samples were harvested and examined two weeks postoperatively. To examine the effect of peptide concentration on cortical bone regeneration, peptide L7 (SEQ ID NO:5) was used at 1, 5, and 20 mM. […] The time course of cortical bone repair with 20 mM L7 was examined at 5, 10, 15, and 20 days.

prostate cancer cells = test: Chimeric tumors of killer-gene mesenchymal cells and prostate cancer cells treated with prodrug; format: in vivo, immune deficient rats
Method: Further experiments were carried out exploiting the phenomenon of mesenchymal cell homing to skeletal tissues. Cells transduced with thymidine kinase or cytidine deaminase, killer genes that can be expressed under the influence of a prodrug, lead to a cell kill effect on neighboring prostate cancer cells in a co-culture system in vitro. In vivo, the mesenchymal cells and prostate cancer cells were co-injected into subcutaneous sites in immune deficient rats. […] Therefore, a cell-based gene delivery system may be useful to pursue as potential therapy for metastatic cancer, particularly prostate cancer cells that have spread to bone.

LNCaP cells = test: Prostate cancer cell adhesion to BMEC: LNCaP; format: cell-based; conditions: FIG. 8; preliminary results
Method: (§4) FIG. 8 is a graphic representation of the effects of various peptides on altering cellular adhesion to BMEC cells in vitro. LNCaP cells were compared directly to C4-2 cells for the ability of specific phage-derived peptides to alter cellular adhesion to BMEC cells in vitro. Adhesion was measured at […]. C=control (no peptide). The ordinate represents percent of acid precipitable counts bound and the abscissa indicated the cells treated and the peptides used.
(§5) The phage-derived bone-targeting peptides isolated by biopanning were tested for their ability to alter the adhesion of prostate cancer cells to a human bone marrow endothelial cell line (see FIG. 8). In this assay, LNCaP cells were compared directly to the more metastatic, bone colonizing derivative, C4-2.

C4-2 cells = test: Prostate cancer cell adhesion to BMEC: C4-2; format: cell-based; conditions: FIG. 8; preliminary results
Method: as §4, §5

[7] = system: bone and marrow tissue sections (mouse femur, rib); test: Biotinylated peptide binding to bone/marrow tissue sections, Avidin-FITC fluorescence; conditions: biotinylated peptides; 1/50,000 dilution of Avidin-FITC
Method: Methods: Four-week old Swiss Webster mice were euthanized; the femurs were excised and decalcified in 0.25M EDTA in PBS solution for 5 days, and washed in PBS for 24 hours. The femoral shafts were obtained by cutting off the proximal and distal ends of the femur. The femoral shafts were placed in Tissue-Tek O.C.T. Compound (Sukura Finetek, Torrance, Calif.) and frozen at −20° C. overnight. Sections were cut at 10 μm serially with a cryomicrotome, rinsed with 1% BSA in PBS three times. To block non-specific reaction sections were incubated with Avidin/Biotin Blocking Kit (Vector Laboratories, Inc. Burlingame, Calif.) according to the manufacturer's instructions. Following another rinse with PBS, 150 μl 10 mM solution of each biotinylated peptide (L1, L2, L7, R1, R8) was added to the slides and incubated for 1 hour at room temperature. In negative controls, only PBS was added. After rewashes with 1% BSA, 150 μl of 1:50,000 dilution of Avidin-FITC was added to each slide and incubated overnight at 4° C.
The sections were washed with 1% BSA in PBS and mounted with Vectashield (Vector Laboratories Inc., Burlingame, Calif.). Fluorescence was visualized using a Nikon eclipse E600 microscope (Nikon, Melville, N.Y.) equipped with a 535 nm wavelength fluorescein filter. Images were obtained using a Sony DKC-5000 digital camera (Sony Electronics Inc.) and processed with Adobe Photoshop software (Adobe Systems Incorporated, San Jose, Calif.).
as §1
Cryosections of decalcified femurs harvested from 4 week BALB/c mice were incubated with biotinylated peptide and Avidin-FITC. […] The distribution of fluorescence throughout the marrow was uneven. […] In control slides incubated with PBS without peptide, none of the cells could be detected by fluorescence (not shown). […]

[8] = system: prostate cancer cells (CaP); test: Prostate cancer (CaP) cell adhesion to BMEC, cell line not distinguished; format: cell-based; conditions: 50 μM and 100 μM tested
Method: as §4, §5
This observation will be examined further and exploited by the aims of this proposal to identify the binding partners of nucleolin in prostate cancer cells as well as to investigate bone tropic peptides as potential inhibitors of prostate cancer metastasis.

GLN-ARG-SER-TRP-THR-LEU-ASP-SER-ALA-LEU-SER-MET-GLY-GLY-GLY-SER (QRSWTLDSALSMGGGS; listed as Homo sapiens) [Peptide L12]
Effect on adherent BAEC (Experiment 1) [1]: the cells lifted and formed clusters that stained intensely
Effect on adherent BAEC (Experiment 3) ([1]; 0.1M peptide, cells adherent about 6 hours): formed fewer clumps and considerably more debris
PERCENT FREQUENCY (bone and bone marrow): 16.7%
PHAGE SEQUENCE FREQUENCY (number of times the sequence was found in a group of plaques) (bone and bone marrow): 5/30
Localization of peptide binding: BAEC [2]: ✓
Localization of peptide binding: Marrow (cells in culture) [3]: ✓
Identification of binding partners by affinity chromatography: HBME [4]: −
Binding partner from BAEC lysates ([5]; biotinylated peptide immobilized on avidin-agarose): vimentin was found to bind
Identification of binding partners by affinity chromatography: BAEC ([5]; cell lysates): ✓Vimentin
Effectiveness at stimulating osteogenesis and cortical bone repair [6]: most effective at stimulating osteogenesis and cortical bone repair

Nc1nc2c(ncn2COC(CO)CO)c(=O)[nH]1 [gencyclovir]
Size of chimeric tumors (prostate cancer cells; mesenchymal cells and prostate cancer cells co-injected subcutaneously, prodrug treatment): diminished in size
Serum PSA levels (prostate cancer cells; treated rats): drop in serum PSA levels

ASP-SER-SER-ASN-PRO-ILE-PHE-TRP-ARG-PRO-SER-SER-GLY-GLY-GLY-SER (DSSNPIFWRPSSGGGS; listed as Homo sapiens) [Peptide L19]
Effect on adherent BAEC (Experiment 1) [1]: no effect, with results similar to PBS
PERCENT FREQUENCY (bone and bone marrow): 16.7%
PHAGE SEQUENCE FREQUENCY (number of times the sequence was found in a group of plaques) (bone and bone marrow): 5/30
Histological appearance of repair tissue in the defect [6]: while some ossification and cortical bone regeneration has occurred, considerable amounts of gelfoam remains in the defect
Effectiveness at stimulating osteogenesis and cortical bone repair [6]: virtually no stimulatory effect on osteogenesis
Effect on adhesion of LNCaP cells to BMEC (LNCaP cells): strongly inhibited the less aggressive LNCaP cell
Effect on adhesion of C4-2 cells to BMEC (C4-2 cells): leaving the adhesion of the C4-2 cell line unaffected

ALA-THR-TRP-SER-HIS-HIS-LEU-SER-SER-ALA-GLY-LEU-GLY-GLY-GLY-SER (ATWSHHLSSAGLGGGS; listed as Homo sapiens) [Peptide R3]
Binding to rib and long bone growth plate sections [7]: no staining
Effect on adherent BAEC (Experiment 1) [1]: the cells had lifted completely and most of the cells disappeared from the surface of the slides, leaving a lot of cell debris
PERCENT FREQUENCY (bone and bone marrow): 34.5%
PHAGE SEQUENCE FREQUENCY (number of times the sequence was found in a group of plaques) (bone and bone marrow): 10/29
Effectiveness at stimulating osteogenesis and cortical bone repair [6]: most effective at stimulating osteogenesis and cortical bone repair
Effect on adhesion of LNCaP cells to BMEC (LNCaP cells): dose-dependent inhibition of CaP cell invasion for both cell lines
Effect on adhesion of C4-2 cells to BMEC (C4-2 cells): dose-dependent inhibition of CaP cell invasion for both cell lines
Concentrations at which peptide inhibits prostate cancer cell adhesion to BMEC [8]: at 100 μM only
